Experimental data: PMC6359675, “Functionalization of the Chalcone Scaffold for the Discovery of Novel Lead Compounds Targeting Fungal Infections” (Molecules, 2019)
Where “and” joins values, the source holds several entries; their conditions need not be identical. Equal entries are not always repeated. Where two headings read alike, the source gives them in different places.

Tests used:
C. albicans ATCC 10231 [1] = assay: In vitro susceptibility testing, microdilution broth (EUCAST), C. albicans control strain; assay type: cell-based, Candida albicans; settings: Candida albicans; for inhibition at 100 µM: ATCC10231, 24 h
Method: (§1) The in vitro antifungal activity of the chalcones was evaluated by a microdilution broth method in accordance with the guidelines provided by the EUCAST Edef 7.3 [22]. Briefly, all strains were cultured on Sabauraud dextrose, then inocula, prepared at 0.5 McFarland, were diluted 1:20 in RPMI-1640 medium (Gibco®, ThermoFisher Scientific Inc., Waltham, MA, USA), containing glucose 2%, 0.3% levo-glutamine buffered to pH 7.0 with 0.165 M 3-(N-morpholino)propanesulfonic acid (MOPS) to yield 1-5 × 10^5 cells/mL. A total of 100 µL of the yeast suspension was inoculated in a 96-well microplate and incubated with 100 µL of serially 2-fold dilution of the compound in the range 200–6.25 µM. The following controls were included: yeast suspensions incubated in RPMI-1640 culture medium (positive growth control), or supplemented with dilutions of DMSO, or fluconazole (Sigma-Aldrich, St. Louis, MO, USA) as a commercial drug. To check the background turbidity of reagents and the sterility of the procedure, dilutions of each compound were incubated in RPMI-1640 culture medium, without yeast inoculum. The inoculated plate was incubated at 37 °C for 24 h, and subsequently the optical density at 630 nm was measured by the Multiskan Ascent microplate reader (Thermo Fisher Scientific Inc.). The effectiveness of the compounds was expressed as percent inhibition relative to the positive growth control when the inhibition […] the 50% at 100 µM. The IC50 value was determined by interpolation of the dose–response curves generated by plotting the percentages of growth inhibition, relative to the drug-free control (set to 100% of growth), as a function of the tested concentrations (on a logarithm scale). Statistical analysis was carried out by the nonlinear regression method using GraphPad Prism version 5.0 for Windows (GraphPad Software, San Diego, CA, USA). All assays were performed in triplicate and at least two independent experiments were carried out.

[2] = Cytotoxicity test on Vero cells (WST8/CCK-8 cell viability); assay type: cell-based, African green monkey; settings: African green monkey, Vero cells (ATCC CCL-81), Vero cells, mean and 95% confidence interval
Method: (§2) African green monkey kidney cells (Vero ATCC CCL-81) were cultured in Eagle’s Minimal Essential Medium (MEM) (Sigma-Aldrich), supplemented with 10% fetal bovine serum (FBS) (Carlo Erba Reagents, Milan, Italy), 100 U/mL penicillin, and 100 µg/mL streptomycin at 37 °C with 5% CO2. For experiments, cells were seeded into 96-well plates at 10^4 cells/well, and incubated at 37 °C for 24 h. Following washes with PBS, cell monolayer was incubated with 100 µL of serially 2-fold dilution of the compound in the range 200–6.25 µM. Both untreated cells and cells incubated with medium containing solvent dilutions were included in each experiment as controls.
(§3) The cell viability was assessed by a WST8-based assay according to the manufacturer’s instructions (CCK-8, Cell Counting Kit-8, Dojindo Molecular Technologies, Rockville, MD, USA). After 72 h of incubation, culture medium was removed from each well, the monolayer was washed with PBS, and 100 µL of fresh medium containing 10 µL of CCK-8 solution were added. Following a 2 h at 37 °C, the absorbance was measured at 450/630 nm; data were calculated as the percentage of the cell viability relative to the untreated controls.

Vero cells (ATCC CCL-81) = assay: as above; assay type: cell-based, African green monkey; settings: 72 h, up to the highest concentration of 200 μM
Method: as §2, §3

C. albicans = assay: In vitro susceptibility testing, C. albicans clinical isolate; assay type: cell-based; settings: Candida albicans
Text: (§4) The yeasts included in the present study were Candida albicans ATCC 10231 (American Type Culture Collection) and a collection of yeasts recovered from a variety of clinical specimens, i.e., blood, urine, genital swabs, bronchoalveolar lavage, nail specimens, collected at the Microbiology Unit, St. Orsola Malpighi University Hospital, Bologna, Italy. The clinical strain isolates were identified by standard procedures, including colony morphology on chromogenic agar (CHROMagar Candida medium, Becton Dickinson, Heidelberg, Germany) and confirmed by MALDI Biotyper System using matrix-assisted laser desorption ionization–time of flight mass spectrometry (MALDI-TOF MS, Bruker Daltonik, GmbH, Germany).
as §1

C. parapsilosis = assay: In vitro susceptibility testing, C. parapsilosis clinical isolate; assay type: cell-based; settings: Lodderomyces parapsilosis
Text: as §4, §1

C. lusitaniae = assay: In vitro susceptibility testing, C. lusitaniae clinical isolate; assay type: cell-based; settings: Clavispora lusitaniae
Text: as §4, §1

C. tropicalis = assay: In vitro susceptibility testing, C. tropicalis clinical isolate; assay type: cell-based; settings: Candida tropicalis
Text: as §4, §1

C. krusei = assay: In vitro susceptibility testing, C. krusei clinical isolate; assay type: cell-based; settings: Pichia kudriavzevii
Text: as §4, §1

C. glabrata = assay: In vitro susceptibility testing, C. glabrata clinical isolate; assay type: cell-based; settings: Nakaseomyces glabratus
Text: as §4, §1

C. utilis = assay: In vitro susceptibility testing, C. utilis clinical isolate; assay type: cell-based; settings: Williopsis jadinii
Text: as §4, §1

C. neoformans = assay: In vitro susceptibility testing, C. neoformans clinical isolate; assay type: cell-based; settings: Cryptococcus neoformans
Text: as §4, §1

S. clavata = assay: In vitro susceptibility testing, S. clavata clinical isolate; assay type: cell-based
Text: as §4, §1

R. mucilaginosa = assay: In vitro susceptibility testing, R. mucilaginosa clinical isolate; assay type: cell-based
Text: as §4, §1

C. albicans ATCC 10231 [3] = assay: Agar-invasive hyphal growth (Spider agar assay); assay type: cell-based, Candida albicans; settings: compounds at IC50 values, three days at 37 °C
Method: Aliquots (2 µL) of a suspension of C. albicans ATCC 10231 (5 × 10^5 cells/mL) were spotted onto medium in triplicate and the morphology of growing colonies was observed following three days of incubation at 37 °C. Spider agar plates without chalcones, containing DMSO, served as the control. The presence of filaments at the colony edges was determined using a light microscope under 10× magnification.

C. albicans ATCC 10231 [4] = assay: Disruption of preformed mature biofilm (biofilm metabolic activity); assay type: cell-based, Candida albicans; settings: compounds added to preformed mature biofilm; statistically significant
C. albicans ATCC 10231 [5] = assay: Effect on yeast-to-hyphae transition; assay type: cell-based, Candida albicans; settings: compound at IC50 value, 2 h
Text: Blastospore and hyphae forms were observed under a light microscope.

[6] = ATCC10231, C. albicans ATCC 10231, mean and 95% confidence interval, read-out: IC50
[7] = ATCC10231, C. albicans ATCC 10231, mean and 95% confidence interval, read-out: IC50 [μg/mL]
[8] = clinical isolate, mean and 95% confidence interval, read-out: IC50 C. albicans
[9] = clinical isolate, read-out: IC50 C. parapsilosis
[10] = clinical isolate, read-out: IC50 C. lusitaniae
[11] = clinical isolate, read-out: IC50 C. tropicalis
[12] = clinical isolate, read-out: IC50 C. krusei
[13] = clinical isolate, read-out: IC50 C. glabrata
[14] = clinical isolate, read-out: IC50 C. utilis
[15] = clinical isolate, read-out: IC50 C. neoformans
[16] = clinical isolate, read-out: IC50 S. clavata
[17] = clinical isolate, read-out: IC50 R. mucilaginosa

Structure (SMILES) | IC50 (C. albicans ATCC 10231 [1]; [6]) [µM] | IC50 (C. albicans ATCC 10231 [1]; [7]) [µg/mL] | inhibition at 100 µM (C. albicans ATCC 10231 [1]; C. albicans ATCC 10231) [%] | CC50 at 72 h ([2]; read-out: CC50) [µM] | CC50 at 72 h ([2]; read-out: CC50 [μg/mL]) [µg/mL] | toxicity on Vero cells, in words (Vero cells (ATCC CCL-81)) | IC50 (C. albicans; [8]) | IC50 (C. parapsilosis; [9]) | IC50 (C. lusitaniae; [10]) | IC50 (C. tropicalis; [11]) | IC50 (C. krusei; [12]) | IC50 (C. glabrata; [13]) | IC50 (C. utilis; [14]) | IC50 (C. neoformans; [15]) | IC50 (S. clavata; [16]) | IC50 (R. mucilaginosa; [17]) | invasion of Spider medium (filamentation) (C. albicans ATCC 10231 [3]) | reduction of metabolism of sessile cells in mature biofilm (C. albicans ATCC 10231 [4]) [%] | further results
O=C(/C=C/c1cc(F)cc(F)c1)c1cc(Cl)ccc1O [Compound 5, (E)-1-(5-Chloro-2-hydroxyphenyl)-3-(3,5-difluorophenyl)prop-2-en-1-one] | 51.3 | 15.1 | 62 ± 1.5 | > 200 | > 58.9 | did not display any toxicity | 29.5 µg/mL and 100 µM | 58.9 µg/mL and 200 µM | 14.1 µg/mL and 47.9 µM | > 58.9 µg/mL and > 200 µM | > 58.9 µg/mL and > 200 µM | > 58.9 µg/mL and > 200 µM | 29.5 µg/mL and 100 µM | 5.3 µg/mL and 18 µM | 29.5 µg/mL and 100 µM | 22.7 µg/mL and 76.9 µM | unable to penetrate the medium | < 25 | 
O=C(/C=C/c1cccc(F)c1)c1cc(F)ccc1O [Compound 7, (E)-1-(5-Fluoro-2-hydroxyphenyl)-3-(3-fluorophenyl)prop-2-en-1-one] | 53 | 13.8 | 69 ± 12.4 | 182 | 47.3 |  | 32.1 µM and 8.4 µg/mL | 100 µM and 26 µg/mL | 31.7 µM and 8.2 µg/mL | > 200 µM and > 52 µg/mL | 100 µM and 26 µg/mL | 100 µM and 26 µg/mL | 100 µM and 26 µg/mL | 15.6 µM and 4.1 µg/mL | 37 µM and 9.6 µg/mL | 80 µM and 20.8 µg/mL | unable to penetrate the medium | < 25 | cell morphology after treatment (C. albicans ATCC 10231 [5]): mainly formed blastospores, some rare budding cells but no hyphae
COc1cc(OCCN2CCN(c3ccccc3)CC2)ccc1C(=O)/C=C/c1ccc(F)cc1 [Compound 28, (E)-3-(4-Fluorophenyl)-1-(2-methoxy-4-(2-(4-phenylpiperazin-1-yl)ethoxy)phenyl)prop-2-en-1-one] | 55.9 | 27.7 | 99.1 ± 0.7 | > 200 | > 99.2 | did not display any toxicity | 48.1 µM and 23.9 µg/mL | 36.8 µM and 18.3 µg/mL | 26.5 µM and 13.1 µg/mL | 26.6 µM and 13.2 µg/mL | 63.5 µM and 31.5 µg/mL | 37.1 µM and 18.4 µg/mL | 29.6 µM and 14.7 µg/mL | 17.7 µM and 8.8 µg/mL | 27.9 µM and 13.8 µg/mL | 48.5 µM and 21.4 µg/mL |  |  | IC50 (C. albicans ATCC 10231 [1]; ATCC10231, Table S1, variable slope best-fit, C. albicans ATCC 10231, read-out: IC50): 55.6 µM; IC50 (C. albicans; Table S1, best-fit, C. albicans clinical isolate, read-out: IC50): 48.1 µM; IC50 (C. parapsilosis; Table S1, best-fit, C. parapsilosis, read-out: IC50): 31.3 µM; IC50 (C. lusitaniae; Table S1, best-fit, C. lusitaniae, read-out: IC50): 26.5 µM; IC50 (C. tropicalis; Table S1, best-fit, C. tropicalis, read-out: IC50): 26.6 µM; IC50 (C. krusei; Table S1, best-fit, C. krusei, read-out: IC50): 63.6 µM; IC50 (C. glabrata; Table S1, best-fit, C. glabrata, read-out: IC50): 35.9 µM; IC50 (C. utilis; Table S1, best-fit, C. utilis, read-out: IC50): 29.6 µM; IC50 (C. neoformans; Table S2, best-fit, C. neoformans, read-out: IC50): 17.7 µM; IC50 (S. clavata; Table S2, best-fit, S. clavata, read-out: IC50): 28 µM; IC50 (R. mucilaginosa; Table S2, best-fit, R. mucilaginosa, read-out: IC50): 46.2 µM
